From US11054413B2, “Materials and methods for assaying living cells” (UNIVERSITY OF MARYLAND, COLLEGE PARK, priority 2014, dated 2021)
“Also recorded” adds a separate entry of the source.

Legend:
SkBr3 cells [1] = assay: McTN scoring in detached SkBr3 cells, confocal microscopy for tubulin (FIG. 4); assay type: cell-based; settings: nonmetastatic SkBr3 cells
Excerpt: FIG. 4. Targeting cell division can increase McTNs. […] (Bars=mean±S.D from 3 expts. with McTNs scored blindly).

MDA-436 cells = assay: Automated McTN analysis (FIG. 24); assay type: cell-based, human; settings: at least 10 random cells
Excerpt: FIG. 24. Automated McTN analysis. […] A gradient vector flow snake algorithm was used to define the cell edges and a local curvature maxima effectively identified McTN ends (yellow diamonds). […] This automated cell shape analysis will also enable calculations of average McTN length, curvature, etc. that will yield more multi-dimensional data for McTN studies.

MDA-MB-436 cells [2] = assay: Real-time McTN imaging of PEM-DOTAP tethered cells with drug treatment (FIG. 29B); assay type: cell-based, human; settings: for McTN formation: PEM-DOTAP tether; for McTN dynamics over time: compared to vehicle control, time-lapse
Protocol: FIG. 29. Lipid tethering allows for real-time microtentacle imaging in response to drug treatment and minimizes effects of drift. (A) Microtentacle (arrows) imaging of MDA-MB-436 cells seeded on micro-slides with PEM-no tether (i-iii) and PEM-DOTAP tether (iv-vi). Representative […] slice (i and iv), maximum z-projection of 5 slices at one time point (ii and v), and maximum t-projection after 20 frames (iii and vi) are shown at 60× magnification. (B) Microtentacle (arrow) imaging of MDA-MB-436 cells seeded on micro-slides with PEM-DOTAP tether after treatment with 5 uM colchicine for 15 minutes and 1 μg/ml Taxol for 120 minutes. Maximum intensity z-projections of five […] slices at one time point are shown at 60× magnification. Scale bar represents […]
MDA-MB-436 cells were trypsinized, spun down, and resuspended in phenol red-free and serum-free DMEM. Cells were seeded on PEM coated micro-slides with 4 bilayers and PEM coated micro-slides with 4 bilayers and the addition of DOTAP (50,000 cells/channel). Cells were incubated for 1 h to allow for tethering. After 1 h, one wash was done where the existing media was gently removed from the bottom port of each channel and fresh media was added to top port. This wash was to ensure only tethered cells were analyzed. After this wash, CellMask orange cell membrane dye was added to each channel to a final concentration of 1:10,000. McTN imaging was done on an Olympus FV100 confocal laser scanning microscope at 60× magnification. Five 1 uM slices and 20 frames at a 10 sec frame rate were taken for at least five image sets for each condition. Colchicine was added to each channel at a final concentration of 5 uM and cells were imaged after 15 minutes. Taxol was added to each channel at final concentration of 1 μg/ml and imaged after 120 minutes. Cells were again imaged with five […] slices and 20 frames at a 10 second frame rate.

[3] = tested on: MDA-436 breast tumor cells; assay: Quantitative image analysis of time-dependent McTN metrics and tip tracking (FIG. 36-37); assay type: cell-based, human
Excerpt: FIG. 36. Quantitative image analysis of time-dependent McTN metrics. A) MDA-436 breast tumor cells that were tethered with a PEM+DOTAP surface coating were imaged for McTNs with confocal microscopy (5 z-slices of 1 μm, max intensity projection shown). A custom MATLAB algorithm was applied to the image data to find the cell periphery (Perimeter trace) and then locate local points of maximum perimeter curvature (McTN Tracker). B) Analyzing cells at 10 s timepoints allows the dynamic movement of McTNs under vehicle-treated conditions to be appreciated (blue lines).
FIG. 37. Tracking individual McTN tip motion. Applying a particle-tracking algorithm to the McTN tips identified in FIG. 36 allows the movement of individual McTN tips (color-coded) to be followed over time.
Using breast cancer cell lines, we developed a custom MATLAB algorithm to identify McTN ends (points of local surface curvature maxima on a perimeter trace). Combined with automated identification of the cell body (erosion mask), both the number and lengths of individual McTNs can be defined. Now that we have succeeded in tethering tumor cells to PEM-DOTAP surfaces, it dramatically improves our ability to collect time-lapse confocal imaging without the blurring that occurs with even minor cell drift. […] By comparison, the variance of all three measures is reduced in Taxol-treated cells, reflecting the effect of stabilizing microtubules. Individual McTN tips can also be followed with MATLAB particle tracking to quantitate McTN dynamics (FIG. 37).

Patient-derived cells = assay: McTN and stem cell responses of patient-derived cells to drugs (Table 2, predicted); assay type: cell-based, human; settings: 30 minutes at the concentration given
Protocol: Patient-derived cells are treated with either vehicle (0.1% DMSO) or each of the drugs in Table 2 at the indicated concentration for 30 minutes and then analyzed for McTN incidence.

SkBr3 cells [4] = settings: Balzer et al. 2010, see FIG. 4; cited from earlier work
[5] = tested on: stem cell characteristics; settings: Gupta et al. 2009; cited from earlier work
CTCs = settings: neoadjuvant treatment in advance of surgery; cited from earlier work
tumor cells [6] = settings: tumor cells treated with taxol; cited from earlier work
epithelial cells = settings: Liu et al. 2012; Suprynowicz et al. 2012; cited from earlier work
MCF-7 cells = assay: Tethering washing, cell retention; assay type: cell-based, human
Protocol: (§1) MDA-MB-436 and MCF-7 cells were seeded on PEM coated micro-slides with 4 bilayers and addition of DOPC or DOTAP (50,000 cells/channel). Cells were incubated for 1 h to allow for tethering. To quantify initial cell number, three images per channel were taken for each condition at time 0. After 1 h, existing media was gently removed from the bottom port of each channel and fresh media was added to the top port. Following a wash, three images were taken per channel for each condition using an Olympus CKX41 microscope at 4× magnification. This process was repeated for each wash. The area of the image occupied with cells (as a percent) was quantified using CellProfiler and the average from three images was calculated. The average percentage for each condition was then normalized to the area occupied at time 0.

MDA-MB-436 cells [7] = assay: Tethering washing, cell retention; assay type: cell-based, human
Protocol: as §1

tumor cells [8] = assay: Retention of tethered cells after formaldehyde crosslinking of DOTAP to PEM (FIG. 38B); assay type: cell-based; settings: DOTAP crosslinked to PEM with formaldehyde vs charge interaction, multiple washes
Excerpt: FIG. 38. PEM coating for McTN studies.
We assembled PEMs from alternating layers of polymethacrylic acid (PMA) and polyacrylamide (PAAm) to coat microfluidic channels with very thin (100-1000 Angstroms) multilayers that retain high optical clarity. […] This crosslinking approach enables us to conduct improved imaging, time-dependent drug treatments without causing cell drift, but also illustrates that photo-crosslinking could be used to develop patterned arrays to facilitate tumor cell mechanical measurements and cell fate studies.

[9] = Taxol 1 μg/ml, PEM+DOTAP tethered
[10] = Taxol, McTN tip particle tracking
[11] = first wash, 4 PMA/PAAm bilayers, 1 h tethering
[12] = terminal lipid on 4 PMA/PAAm bilayers, successive washes

Which “levels of McTNs” value (SkBr3 cells [1]; Paclitaxel-Taxol 1.2 μM) does the source give for `CC(=O)O[C@H]1C(=O)[C@@]2(C)[C@H]([C@H](OC(=O)c3ccccc3)[C@]3(O)C[C@H](OC(=O)[C@H](O)[C@@H](NC(=O)c4ccccc4)c4ccccc4)C(C)=C1C3(C)C)[C@]1(OC(C)=O)CO[C@@H]1C[C@@H]2O` [Paclitaxel] here?
The value was “increases levels of McTNs dramatically”.

And the “average number of McTNs per cell” value (MDA-436 cells; paclitaxel 1 μM)?
The value was “increases McTNs, but this does not reach significance”.

What about the McTN formation (MDA-MB-436 cells [2]; Taxol 1 μg/ml, 120 minutes) of the same compound?
Its McTN formation is “enhances McTNs; also recorded: enhanced McTN formation”.

What about the “McTN dynamics over time” value (MDA-MB-436 cells [2]; taxol) of the same compound?
The value was “hyperstabilizes McTNs dramatically decreasing their dynamics”.

What about the “range of McTN measurements and variance of all metrics” value ([3]; Taxol 1 μg/ml, 10 s timepoints) of the same compound?
The value was “reduced; also recorded: strongly reduces the range of McTN measurements and the variance of all metrics”.

And the McTN length [3, 9]?
Its McTN length is “increases”.

What about the “number of McTNs per cell >4 μm from cell periphery (McTN number)” value [3, 9] of the same compound?
Its value is “increases the number of McTNs per cell”.

And the “McTN persistence (area over which a McTN moves)” value [3, 10]?
The value was “make McTNs more persistent”.

What about the “average McTN speed” value [3, 10] of the same compound?
Its value is “reduce average McTN speed”.

What about the “Predicted stemness & McTN effect” value (Patient-derived cells) of the same compound?
Its value is “Increase”.

What about the McTNs (SkBr3 cells [4]) of the same compound?
Its McTNs is “strongly promote McTNs”.

And the “stem cell characteristics and tumor metastasis” value [5]?
Its value is “increases stem cell characteristics and even tumor metastasis”.

And the “increase of CTCs” value (CTCs)?
Its value is “more than 1000 fold”.

What about the “lung trapping of tumor cells” value (tumor cells [6]) of the same compound?
Its value is “greater lung trapping of tumor cells”.

Which results are given for `C[C@@H](N)[C@H]1CC[C@H](C(=O)Nc2ccncc2)CC1` [Y-27632]?
Predicted stemness & McTN effect (Patient-derived cells): Increase; stem cell conversion (epithelial cells): conversion is occurring

Which results are given for `COc1cc2c(c(OC)c1OC)-c1ccc(OC)c(=O)cc1[C@@H](NC(C)=O)CC2` [Colchicine]?
average number of McTNs per cell (MDA-436 cells; colchicine 50 μM): significantly reduces the average number of McTNs per cell; McTN formation (MDA-MB-436 cells [2]; colchicine 5 uM, 15 minutes): decreases microtentacles; also recorded: inhibited McTN formation; McTN dynamics over time (MDA-MB-436 cells [2]; colchicine): shrinks McTNs and enhances cell blebbing; McTNs ([3]; Colchicine 50 μM, PEM+DOTAP tethered): completely inhibits McTN generation; also recorded: completely eliminates McTNs; Predicted stemness & McTN effect (Patient-derived cells): Decrease

Which “Predicted stemness & McTN effect” value (Patient-derived cells) does the source give for `C=C1C(=O)O[C@@H]2/C=C(\C)CC/C=C(\C)CC[C@@H]12` [Costunolide] here?
Its value is “Decrease”.

For `CN(C)S(=O)(=O)c1ccc2c(c1)/C(=C/c1cc3c([nH]1)CCCC3)C(=O)N2` [SU6656], which “Predicted stemness & McTN effect” value (Patient-derived cells) is on record?
The value was “Increase”.

With `O=S(=O)(c1cccc2cnccc12)N1CCCNCC1` [Fasudil] as the compound, how does the “Predicted stemness & McTN effect” value (Patient-derived cells) read?
The value was “Increase”.

With `CC[C@]1(O)C[C@@H]2CN(CCc3c([nH]c4ccccc34)[C@@](C(=O)OC)(c3cc4c(cc3OC)N(C)[C@H]3[C@@](O)(C(=O)OC)[C@H](OC(C)=O)[C@]5(CC)C=CCN6CC[C@]43[C@@H]65)C2)C1` [Vinblastine] as the compound, how does the “Predicted stemness & McTN effect” value (Patient-derived cells) read?
The value was “Decrease”.

Which “Predicted stemness & McTN effect” value (Patient-derived cells) does the source give for `O=S(=O)(c1cccc2c(I)cccc12)N1CCCNCC1` [ML-7] here?
The value was “Decrease”.

Which results are given for `CCCCCCCC/C=C\CCCCCCCC(=O)OCC(C[N+](C)(C)C)OC(=O)CCCCCCC/C=C\CCCCCCCC` (stereo not shown) [DOTAP, 1,2-dioleoyl-3-trimethylammonium-propane]?
cell retention (MCF-7 cells; after five washes): 15%; cell retention (MCF-7 cells; [11]): 80%; cell retention (MDA-MB-436 cells [7]; [11]): 38%; retention of tethered tumor cells (tumor cells [8]): dramatically improves retention of tethered tumor cells during multiple washes; also recorded: significantly improves initial tethering efficiency and resistance to washing

With `CCCCCCCC/C=C\CCCCCCCC(=O)OC[C@H](COP(=O)([O-])OCC[N+](C)(C)C)OC(=O)CCCCCCC/C=C\CCCCCCCC` [DOPC, 1,2-dioleoyl-sn-glycero-3-phosphocholine] as the compound, how does the “tethering of tumor cells” value (MCF-7 cells; [12]) read?
Its value is “unable to effectively tether either type of tumor cells”.

What about the “tethering of tumor cells” value (MDA-MB-436 cells [7]; [12]) of the same compound?
The value was “unable to effectively tether either type of tumor cells”.

Which “Predicted stemness & McTN effect” value (Patient-derived cells) does the source give for `CC(=O)O[C@@]12CO[C@@H]1C[C@H](O)[C@@]1(C)C(=O)[C@H](O)C3=C(C)[C@@H](OC(=O)[C@H](O)[C@@H](NC(=O)OC(C)(C)C)c4ccccc4)C[C@@](O)([C@@H](OC(=O)c4ccccc4)[C@H]21)C3(C)C` [Docetaxel] here?
Its value is “Increase”.

With `C/C1=C\[C@H](C)C[C@H](C)OC(=O)C[C@H](c2ccc(O)cc2)NC(=O)[C@@H](Cc2c(Br)[nH]c3ccccc23)N(C)C(=O)[C@H](C)NC(=O)[C@@H](C)C1` [Jasplakinolide] as the compound, how does the “levels of McTNs” value (SkBr3 cells [1]; Jas 500 nM) read?
The value was “increases levels of McTNs dramatically”.

And the “Predicted stemness & McTN effect” value (Patient-derived cells)?
The value was “Decrease”.

What about the McTNs (SkBr3 cells [4]) of the same compound?
The McTNs was “strongly promote McTNs”.

For `C/C(=C\c1csc(C)n1)[C@@H]1C[C@@H]2O[C@]2(C)CCC[C@H](C)[C@H](O)[C@@H](C)C(=O)C(C)(C)[C@@H](O)CC(=O)N1` [Ixabepilone], which “Predicted stemness & McTN effect” value (Patient-derived cells) is on record?
Its value is “Increase”.
